The source of these data is patent US12350262B2, “Methods of treatment for cystic fibrosis” (Vertex Pharmaceuticals Incorporated, priority 2017, dated 2025).

Series [1] addresses T1, F508del CFTR in NIH3T3 cells (Homo sapiens, UniProt P13569, DEL508-508).
T1 construct: expressed in transfected cells
In words: Membrane potential optical assay (correction assay). The class given is cell-based. The text has this:
An optical assay was employed to measure changes in membrane potential to determine the CFTR modulator properties of compounds. The assay utilized fluorescent voltage sensing dyes to measure changes in membrane potential using a fluorescent plate reader (e.g., FLIPR III, Molecular Devices, Inc.) as a readout for increase in functional F508del in NIH 3T3 cells. The driving force for the response was the creation of a chloride ion gradient in conjunction with channel activation and concurrent with compound treatment by a single liquid addition step after the cells had previously been loaded with a voltage sensing dye.
NIH3T3 mouse fibroblasts stably expressing F508del were used for optical measurements of membrane potential. The cells were maintained at 37° C. in 5% CO2 and 90% humidity in Dulbecco's modified Eagle's medium supplemented with 2 mM glutamine, 10% fetal bovine serum, 1×NEAA, P-ME, 1× pen/strep, and 25 mM HEPES in 175 cm^2 culture flasks. For all optical assays, the cells were seeded at 12,000 cells/well in 384-well matrigel-coated plates. […] The cells were then activated and treated with Compound I. After 18-24 hours, fluorescence from the voltage sensing dye in the cells was measured to assess changes in the membrane potential as a read out for increase in functional F508del CFTR in the NIH3T3 cells.

Series [2] deals with T2, F508del-CFTR in human bronchial epithelial (HBE) cells (Homo sapiens, UniProt P13569, DEL508-508).
T2 construct: Non-CF and CF airway epithelia were isolated from bronchial tissue; endogenous in cells; host or cells: primary CF human bronchial epithelial (HBE) cells
T2 sequence (P13569 with tags, fused parts or gaps DEL508-508): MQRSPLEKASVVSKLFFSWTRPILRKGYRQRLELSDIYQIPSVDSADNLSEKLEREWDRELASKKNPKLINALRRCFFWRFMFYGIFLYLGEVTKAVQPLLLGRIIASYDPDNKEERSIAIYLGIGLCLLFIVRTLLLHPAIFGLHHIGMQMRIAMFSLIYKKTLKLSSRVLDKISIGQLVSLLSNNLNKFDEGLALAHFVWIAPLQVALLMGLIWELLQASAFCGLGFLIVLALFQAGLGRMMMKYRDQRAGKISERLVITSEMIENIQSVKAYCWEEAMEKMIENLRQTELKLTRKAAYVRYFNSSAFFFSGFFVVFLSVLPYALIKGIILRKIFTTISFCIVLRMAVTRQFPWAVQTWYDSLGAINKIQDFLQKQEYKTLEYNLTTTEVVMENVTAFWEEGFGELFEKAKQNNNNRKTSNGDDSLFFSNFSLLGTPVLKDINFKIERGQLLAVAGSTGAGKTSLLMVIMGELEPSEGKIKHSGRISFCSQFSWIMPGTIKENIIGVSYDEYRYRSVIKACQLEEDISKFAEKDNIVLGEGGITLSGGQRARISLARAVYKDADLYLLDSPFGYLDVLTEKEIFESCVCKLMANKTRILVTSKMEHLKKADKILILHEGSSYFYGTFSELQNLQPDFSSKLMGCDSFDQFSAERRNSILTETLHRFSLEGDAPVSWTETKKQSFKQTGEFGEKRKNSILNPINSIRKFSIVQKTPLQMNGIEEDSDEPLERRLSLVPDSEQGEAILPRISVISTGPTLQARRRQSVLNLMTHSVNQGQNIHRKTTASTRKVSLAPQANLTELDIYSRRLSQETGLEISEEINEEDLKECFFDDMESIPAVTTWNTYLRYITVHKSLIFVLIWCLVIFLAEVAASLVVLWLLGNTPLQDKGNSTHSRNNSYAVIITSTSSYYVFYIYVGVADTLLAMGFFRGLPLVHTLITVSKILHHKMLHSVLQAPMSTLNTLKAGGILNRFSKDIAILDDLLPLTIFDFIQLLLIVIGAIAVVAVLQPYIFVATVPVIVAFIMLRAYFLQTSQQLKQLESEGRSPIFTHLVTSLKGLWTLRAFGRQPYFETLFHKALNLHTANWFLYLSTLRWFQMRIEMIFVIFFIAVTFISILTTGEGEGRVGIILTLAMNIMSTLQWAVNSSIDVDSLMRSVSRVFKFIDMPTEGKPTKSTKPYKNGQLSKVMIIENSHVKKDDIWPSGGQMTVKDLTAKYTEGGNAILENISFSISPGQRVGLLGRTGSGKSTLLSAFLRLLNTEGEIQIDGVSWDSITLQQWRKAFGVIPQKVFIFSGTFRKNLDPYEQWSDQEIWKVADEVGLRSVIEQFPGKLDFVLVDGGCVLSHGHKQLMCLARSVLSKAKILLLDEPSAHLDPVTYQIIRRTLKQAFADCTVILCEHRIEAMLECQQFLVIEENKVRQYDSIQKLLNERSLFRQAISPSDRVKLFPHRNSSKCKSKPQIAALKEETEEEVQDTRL
In words: Ussing chamber assay. The class given is cell-based. The note with it: chloride current. Here is the method: Ussing chamber experiments were performed on polarized airway epithelial cells expressing F508del to further characterize the F508del modulators identified in the optical assay above. Non-CF and CF airway epithelia were isolated from bronchial tissue, cultured using methods well known in the art, and plated onto Costar® Snapwell™ filters that were precoated with NIH3T3-conditioned media. After four days the apical media was removed and the cells were grown at an air liquid interface for >14 days prior to use. […] CF-HBE cells were isolated from patients homozygous for F508del (F508del/F508del-HBE) or heterozygous for F508del with a different disease causing mutation on the other allele.
HBE cells grown on Costar® Snapwell™ cell culture inserts were mounted in an Ussing chamber (Physiologic Instruments, Inc., San Diego, CA), and the transepithelial resistance and short-circuit current in the presence of a basolateral to apical Cl^− gradient (ISC) were measured using a voltage-clamp system (Department of Bioengineering, University of Iowa, IA). Briefly, HBE cells were examined under voltage-clamp recording conditions (Vhold=0 mV) at 37° C. […]
A basolateral to apical membrane Cl^− concentration gradient was set up as follows. […] Chloride current was measured to assess the increase in functional CFTR in the cell membrane.

Series [3] is described as follows: Rat pharmacokinetics, single IV and PO dose. The class given is in vivo, male Sprague Dawley rats. The following applies: single nominal oral dose 3 mg/kg. How it is done:
Compound 1 was also administered to male Sprague Dawley rats at single nominal oral dose (PO) of 3 mg/kg as a solution in 5% NMP, 30% PEG400, 10% TPGS, 5% PVP-K30 at 5 mL/kg dose volume.
The study design, sample tracking, data run design and individual plasma sample concentrations were stored using Watson LIMS software, Version 7.4.2 (Thermo Scientific Inc, Waltham, MA). Plasma concentration-time profiles of Compound 1 in Sprague Dawley rats at scheduled (nominal) sampling times were analyzed by noncompartmental pharmacokinetic methods using PK function within Watson LIMS software, Version 7.4.2 (Thermo Scientific Inc, Waltham, MA). Key pharmacokinetic parameters such as “area under the curve” (AUC), from the time of drug administration, time zero, extrapolated to infinity, clearance (CL), and Percent of oral bioavailability (% F) were determined. The AUC values were calculated using the linear trapezoidal rule.

Another series has as its system healthy subjects. As to the kind of experiment: Safety and Efficacy Study 1, Part 1 with healthy subjects. The following applies: interim data. In kind it is in vivo, human.

T1 sequence (P13569 with tags, fused parts or gaps DEL508-508): as above

With `Cc1nn(C)cc1S(=O)(=O)NC(=O)c1ccc(-n2ccc(OCC(C)(C)C(F)(F)F)n2)nc1N1C[C@@H](C)CC1(C)C` [Compound I, N-(1,3-dimethylpyrazol-4-yl)sulfonyl-6-[3-(3,3,3-trifluoro-2,2-dimethyl-propoxy)pyrazol-1-yl]-2-[(4S)-2,2,4-trimethylpyrrolidin-1-yl]pyridine-3-carboxamide], in series [1] (NIH3T3, relative to Compound II, read-out: % Efficacy), the Emax is at least 100%. Besides, the concentration giving a half-maximal response (EC50) is under 3 µM in series [1] (NIH3T3 cells expressing F508del, 18-24 hours treatment) and under 2000 nM in series [2]. In addition, the “HBE Max Eff” value in series [2] is given as “+++ (means >100%)”. In addition, the “Rat PO AUC/dose” value in series [3] amounted to 9.4 ± 0.7 µg·h/mL/mg/kg. Further, the safety and tolerability result in the series on healthy subjects (multiple doses up to 340 mg for 10 days) was “safe and well tolerated”; in the series on healthy subjects (single doses up to 360 mg) it was “safe and well tolerated”.

By EC50 is commonly meant the concentration needed to bring the measured effect to its halfway point.
